Measurements taken from PMC11314561, “Design and Synthesis of Novel Aminoindazole-pyrrolo[2,3-b]pyridine Inhibitors of IKKα That Selectively Perturb Cellular Non-Canonical NF-κB Signalling” (Molecules, 2024).
In brackets after ≈: the same amount, converted by molar mass. Like-named read-outs stand apart in the source and are kept apart here.

How the values were obtained:
[1] = target: T1, IKKα (Homo sapiens, UniProt O15111); experiment: DELFIA kinase assay, IKKα; assay type: biochemical; settings: DELFIA kinase assay
T1 sequence (O15111 1-745): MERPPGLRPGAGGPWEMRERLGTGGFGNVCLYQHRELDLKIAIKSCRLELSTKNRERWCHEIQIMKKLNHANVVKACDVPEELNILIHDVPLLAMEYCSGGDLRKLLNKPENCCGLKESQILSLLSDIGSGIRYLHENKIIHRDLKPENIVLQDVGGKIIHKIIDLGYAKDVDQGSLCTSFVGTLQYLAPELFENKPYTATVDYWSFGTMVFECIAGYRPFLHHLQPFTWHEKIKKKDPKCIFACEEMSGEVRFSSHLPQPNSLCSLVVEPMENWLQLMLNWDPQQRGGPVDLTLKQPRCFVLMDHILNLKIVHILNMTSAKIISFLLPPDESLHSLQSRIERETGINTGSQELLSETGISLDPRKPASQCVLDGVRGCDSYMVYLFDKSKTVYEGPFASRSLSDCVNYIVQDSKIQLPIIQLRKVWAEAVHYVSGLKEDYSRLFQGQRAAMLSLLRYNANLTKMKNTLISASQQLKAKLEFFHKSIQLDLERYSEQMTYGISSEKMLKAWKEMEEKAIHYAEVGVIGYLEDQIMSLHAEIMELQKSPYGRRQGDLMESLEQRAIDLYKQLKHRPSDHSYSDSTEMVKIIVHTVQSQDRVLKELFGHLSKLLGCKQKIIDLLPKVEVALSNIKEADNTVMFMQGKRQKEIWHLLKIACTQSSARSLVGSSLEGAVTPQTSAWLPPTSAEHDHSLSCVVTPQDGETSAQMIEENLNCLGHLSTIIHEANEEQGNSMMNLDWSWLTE
Text: To examine the pyrrolo[2,3-b]pyridines as an alternative scaffold, we adopted the AIPP core because it had similar dimensions to SU909 (1), with HBD/HBA motifs positioned at the scaffold extremities to interact with both the hinge region and the G-loop wall of IKKα, a rationale we had previously proposed as the basis for imparting selectivity. A preliminary set of AIPP derivatives was designed and synthesised to explore its utility as an IKK-targeting scaffold, whilst incorporating additional functionality through which to introduce selectivity for the IKKα isoform (2–4; Figure 3). This was achieved by initially adopting two different approaches: either appending a hydrophobic moiety to the pyrrolo[2,3-b]pyridine motif as a fused form to afford the tricyclic derivatives 2 and 3, or as a phenyl substituent to introduce flexibility with respect to the central pyrrolo[2,3-b]pyridine moiety in 4. When assessed against IKKα and IKKβ using our in-house DELFIA kinase assay […] The pyrrolo[2,3-b]pyridine was bound to the hinge region in the classical HBA/HBD motif with the GK+3 amide backbone, whilst the aminoindazole projected towards the top of the pocket to interact with the G-loop (Figure 4A). […] In both isoforms, the 2-phenyl moiety protruded away from the hinge towards the exposed solvent area.
(§1) IKKα and IKKβ inhibitory activity were determined using a dissociation-enhanced ligand fluorescent immunoassay (DELFIA) based on the protocol of HTScan™ IKKβ Kinase Assay (Cell Signaling Technology, Danvers, MA, USA) as described in [24].

[2] = target: T2, IKKβ (Homo sapiens, UniProt O14920); experiment: DELFIA kinase assay, IKKβ; assay type: biochemical
T2 sequence (O14920 1-756): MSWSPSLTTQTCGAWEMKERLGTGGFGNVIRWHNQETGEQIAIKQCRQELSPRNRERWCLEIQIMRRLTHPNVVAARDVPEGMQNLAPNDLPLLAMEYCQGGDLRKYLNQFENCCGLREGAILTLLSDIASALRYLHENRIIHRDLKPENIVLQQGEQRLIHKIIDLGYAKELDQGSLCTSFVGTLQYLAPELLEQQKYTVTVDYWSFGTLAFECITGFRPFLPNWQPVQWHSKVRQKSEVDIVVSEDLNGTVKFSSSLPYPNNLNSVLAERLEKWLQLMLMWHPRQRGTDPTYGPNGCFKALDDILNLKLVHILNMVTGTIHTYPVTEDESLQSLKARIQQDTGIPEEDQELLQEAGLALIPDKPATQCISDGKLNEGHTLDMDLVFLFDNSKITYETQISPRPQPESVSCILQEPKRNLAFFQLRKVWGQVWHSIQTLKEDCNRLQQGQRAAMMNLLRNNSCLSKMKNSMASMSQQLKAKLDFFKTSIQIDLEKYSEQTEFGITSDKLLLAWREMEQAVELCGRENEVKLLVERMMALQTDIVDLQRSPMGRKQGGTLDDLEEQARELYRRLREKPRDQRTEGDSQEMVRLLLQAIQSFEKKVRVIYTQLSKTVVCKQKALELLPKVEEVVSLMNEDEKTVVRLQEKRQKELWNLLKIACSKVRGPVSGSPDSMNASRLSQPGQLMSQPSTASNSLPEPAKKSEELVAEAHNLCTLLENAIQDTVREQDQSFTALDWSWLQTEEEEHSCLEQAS
Procedure: as §1

[3] = Turbidimetric solubility; assay type: physicochemical; settings: pH 7.4, aqueous buffer, kinetic from dmso stock, 0.01 M phosphate-buffered saline pH7.4
Procedure: Pharmacokinetic studies were contracted to Sygnature Discovery Limited. Turbidimetric Solubility was determined by diluting compound solutions (1 μM, 3 μM, 10 μM, 30 μM, 100 μM) prepared in DMSO into 0.01 M phosphate-buffered saline pH7.4. Turbidimetry was used as the endpoint by measuring absorbance at 620 nm.

Row | Compound | Ki [1] [µM] | Ki ([2]; read-out: Ki Values IKKβ) [µM] | solubility [3] [µM] | Ki ([2]; Ki Values IKKβ) [µM]
1 | Nc1n[nH]c2ccc(-c3ccnc4[nH]c(-c5cc(O)cc(F)c5)cc34)cc12 [Compound 5f] | 0.004 | 0.042 |  | 
2 | CS(=O)(=O)c1cccc(-c2cc3c(-c4ccc5[nH]nc(N)c5c4)ccnc3[nH]2)c1 [Compound 5k] | 0.003 | 0.036 |  | 
3 | COc1cc(F)cc(-c2cc3c(-c4ccc5[nH]nc(N)c5c4)ccnc3[nH]2)c1 [Compound 5g] | 0.003 | 0.032 |  | 
4 | Nc1n[nH]c2ccc(-c3ccnc4[nH]c(-c5cccc(CNC6CCCC6)c5)cc34)cc12 [Compound 5n] | 0.01 | 0.191 |  | 
5 | Nc1n[nH]c2ccc(-c3ccnc4[nH]c(-c5ccc(OCc6ccccc6)nc5)cc34)cc12 [Compound 6d] | 0.012 | 0.022 |  | 
6 | CN1CCN(C(=O)c2cccc(-c3cc4c(-c5ccc6[nH]nc(N)c6c5)ccnc4[nH]3)c2)CC1 [Compound 5v] | 0.024 | 0.215 |  | 
7 | COc1ccc(COc2cccc(-c3cc4c(-c5ccc6[nH]nc(N)c6c5)ccnc4[nH]3)c2)cc1 [Compound 5z] | 0.043 | 0.166 |  | 
8 | CS(=O)(=O)Nc1cccc(-c2cc3c(-c4ccc5[nH]nc(N)c5c4)ccnc3[nH]2)c1 [Compound 5j] | 0.003 | 0.109 |  | 
9 | CCOc1ccccc1-c1cc2c(-c3ccc4[nH]nc(N)c4c3)ccnc2[nH]1 [Compound 5b] | 0.008 | 0.086 |  | 
10 | COc1cccc(-c2cc3c(-c4ccc5[nH]nc(N)c5c4)ccnc3[nH]2)c1 [Compound 5e] | 0.005 | 0.04 |  | 
11 | Nc1n[nH]c2ccc(-c3ccnc4[nH]c(-c5ccnc(OCCc6ccccc6)c5)cc34)cc12 [Compound 6l] | 0.042 | 1.6 |  | 
12 | Cc1ccc(S(=O)(=O)Nc2ccc(-c3cc4c(-c5ccc6[nH]nc(N)c6c5)ccnc4[nH]3)cc2)cc1 [Compound 5u] | 0.004 | 0.067 |  | 
13 | Nc1n[nH]c2ccc(-c3ccnc4[nH]c(-c5cccc(OCCN6CCOCC6)c5)cc34)cc12 [Compound 5y] | 0.009 | 0.029 |  | 
14 | Nc1n[nH]c2ccc(-c3ccnc4[nH]c(-c5ccccc5O)cc34)cc12 [Compound 5a] | 0.004 | 0.042 |  | 
15 | Cc1ccc(S(=O)(=O)Nc2cccc(-c3cc4c(-c5ccc6[nH]nc(N)c6c5)ccnc4[nH]3)c2)cc1 [Compound 5t] | 0.01 | 1.05 |  | 
16 | Nc1n[nH]c2ccc(-c3ccnc4[nH]c(-c5cccc(C(=O)O)c5)cc34)cc12 [Compound 5h] | 0.008 | 0.168 |  | 
17 | Nc1n[nH]c2ccc(-c3ccnc4[nH]c(-c5ccc(OCc6ccccc6)cc5)cc34)cc12 [Compound 5s] | 0.016 | 0.189 |  | 
18 | Nc1n[nH]c2ccc(-c3ccnc4[nH]c5c(c34)CCCC5)cc12 [Compound 2, 5-(6,7,8,9-Tetrahydro-5H-pyrido[2,3-b]indol-4-yl)-1H-indazol-3-amine] | 0.002 | 0.077 |  | 
19 | Nc1n[nH]c2ccc(-c3ccnc4[nH]c(-c5cncc(OCc6ccccc6)c5)cc34)cc12 [Compound 6e] | 0.021 | 1.55 | 6.5 (≈ 2.81 µg/mL) | 

Row | Compound | Ki [1] [µM] | Ki ([2]; read-out: Ki Values IKKβ) [µM] | solubility [3] [µM] | Ki ([2]; Ki Values IKKβ) [µM]
20 | Nc1n[nH]c2ccc(-c3ccnc4[nH]c(-c5ccccc5OCc5ccccc5)cc34)cc12 [Compound 5q] | 0.057 | 1.06 |  | 
21 | Nc1n[nH]c2ccc(-c3ccnc4[nH]c(-c5cccc(S(=O)(=O)N6CCOCC6)c5)cc34)cc12 [Compound 5aa] | 0.025 | 0.149 |  | 
22 | Nc1n[nH]c2ccc(-c3ccnc4[nH]c(-c5cccc(O)c5)cc34)cc12 [Compound 5d] | 0.005 | 0.026 |  | 
23 | Nc1n[nH]c2ccc(-c3ccnc4[nH]c(-c5cc(F)nc(SCc6ccccc6)c5)cc34)cc12 [Compound 6i] | 0.127 | 3 |  | 
24 | Nc1n[nH]c2ccc(-c3ccnc4[nH]c(-c5ccnc(SCc6ccccc6)c5)cc34)cc12 [Compound 6h] | 0.005 | 1.18 | 2 (≈ 0.897 µg/mL) | 
25 | Nc1n[nH]c2ccc(-c3ccnc4[nH]c5ccccc5c34)cc12 [Compound 3] | 0.003 | 0.005 |  | 
26 | Nc1n[nH]c2ccc(-c3ccnc4[nH]c(-c5cccc(CNc6ccccc6)c5)cc34)cc12 [Compound 5p] | 0.035 | 0.47 |  | 
27 | Nc1n[nH]c2ccc(-c3ccnc4[nH]c(-c5cc(OCc6ccccc6)ccn5)cc34)cc12 [Compound 6j] | 0.025 | 2.3 | 2 (≈ 0.865 µg/mL) | 
28 | COCCNC(=O)c1cccc(-c2cc3c(-c4ccc5[nH]nc(N)c5c4)ccnc3[nH]2)c1 [Compound 5m] | 0.015 | 0.107 |  | 
29 | Nc1n[nH]c2ccc(-c3ccnc4[nH]c(-c5cc(F)nc(CNc6ccccc6)c5)cc34)cc12 [Compound 6f] | 0.033 | 0.503 | 3.75 (≈ 1.69 µg/mL) | 
30 | COCCC(=O)Nc1cccc(-c2cc3c(-c4ccc5[nH]nc(N)c5c4)ccnc3[nH]2)c1 [Compound 5l] | 0.006 | 0.025 |  | 
31 | COCCOCc1cc(OCc2ccccc2)cc(-c2cc3c(-c4ccc5[nH]nc(N)c5c4)ccnc3[nH]2)c1 [Compound 6b] | 0.029 | 1.21 | 3.75 (≈ 1.95 µg/mL) | 
32 | NC(=O)c1cccc(-c2cc3c(-c4ccc5[nH]nc(N)c5c4)ccnc3[nH]2)c1 [Compound 5i] | 0.005 | 0.159 |  | 
33 | Nc1n[nH]c2ccc(-c3ccnc4[nH]c(-c5cccc(OCc6ccccn6)c5)cc34)cc12 [Compound 5w] | 0.016 | 0.402 |  | 
34 | Nc1n[nH]c2ccc(-c3ccnc4[nH]c(-c5cc(F)cc(OCc6ccccc6)c5)cc34)cc12 [Compound 6a] | 0.059 | 5.03 |  | 
35 | CC(C)COc1cccc(-c2cc3c(-c4ccc5[nH]nc(N)c5c4)ccnc3[nH]2)c1 [Compound 5o] | 0.019 | 0.458 |  | 
36 | COCCNc1cc(OCc2ccccc2)cc(-c2cc3c(-c4ccc5[nH]nc(N)c5c4)ccnc3[nH]2)c1 [Compound 6c] | 0.026 |  | 2 (≈ 1.01 µg/mL) | 1.53
37 | Nc1n[nH]c2ccc(-c3ccnc4[nH]c(-c5cccc(OCC6CCOCC6)c5)cc34)cc12 [Compound 5x] | 0.008 | 0.122 |  | 
38 | Nc1cccc(-c2cc3c(-c4ccc5[nH]nc(N)c5c4)ccnc3[nH]2)c1 [Compound 5c] | 0.005 | 0.028 |  | 
